Literature values, collected in US20190105277A1, “PHARMACEUTICAL COMPOSITION COMPRISING AN ATYPICAL ANTIPSYCHOTIC AGENT AND METHOD FOR THE PREPARATION THEREOF” (PHARMATHEN S.A., priority 2016, published 2019).
Like-named read-outs stand apart in the source and are kept apart here.

**Q.** For Cc1nc2n(c(=O)c1CCN1CCC(c3noc4cc(F)ccc34)CC1)CCCC2O (stereo not drawn) [Paliperidone, 3-[2-[4-(6-fluoro-1,2-benzisoxazol-3-yl)-1-piperidinyl]ethyl]-6,7,8,9-tetrahydro-9-hydroxy-2-methyl-4H-pyrido[1,2-a]pyrimidin-4-one], which solubility (in 0.1N HCl) is on record?
**A.** slightly soluble

**Q.** And the solubility (in dichloromethane)?
**A.** sparingly soluble

**Q.** What about the solubility (in water) of the same molecule?
**A.** insoluble
